{"source": "patent US12410174B1", "about": "“Small molecular inhibitors of sting signaling compositions and methods of use” (TYERELL IMMUNOTHERAPEUTICS INC, priority 2020, dated 2025)", "key": {"[1]": {"molecular_target": "T1, human STING CBD-CTT (152-379) (STING152-379H) (Homo sapiens, UniProt Q86WV6)", "T1 construct": "Fraction containing the 237 amino acid (27 kDA) STING protein; made in house; host or cells: E. coli BL21 DE3 RIPL Codon Plus", "T1 sequence (Q86WV6 with tags, fused parts or gaps)": "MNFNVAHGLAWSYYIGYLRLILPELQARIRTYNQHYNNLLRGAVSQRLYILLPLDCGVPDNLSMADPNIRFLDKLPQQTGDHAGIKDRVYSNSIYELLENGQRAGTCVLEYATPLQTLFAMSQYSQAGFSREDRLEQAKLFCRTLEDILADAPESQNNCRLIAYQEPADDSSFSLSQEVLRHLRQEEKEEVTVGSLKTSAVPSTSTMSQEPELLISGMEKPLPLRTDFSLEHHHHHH", "test": "Thermal shift assay (TSA) for binding to purified STING", "conditions": "purified STING152-379H", "text": "Purified STING protein was used as bait to identify binding compounds, using a thermal shift assay (TSA). A library containing 250,000 compounds (Enamine, Monmouth Jct., NJ) was surveyed. Compounds that bound to STING were then examined for their ability to inhibit STING signaling, see Examples 1-4 vide infra. In the presence of cytosolic DNA species, STING becomes activated to drive the transcription of cytokines such as type I IFN. Compounds binding to STING via TSA were subsequently examined for their ability prevent cytosolic DNA species from activating the type I interferon (IFN) promoter, using a live cell assay. This assay comprised immortalized human fibroblasts (hTERT) that were stably transfected with the type I IFN promoter driving luciferase as well as the CMV promoter driving SEAP (hTERT-pIFNβ-Glu). The ability of the small molecules to prevent activation of the type I IFN promoter and the transcription of luciferase, but not SEAP in response to cytosolic DNA species can be assessed. The activation of STING, typically by CDNs, in turn activates the transcription factors NF-κB and IRF3, both of which are required to induce the transcriptional stimulation of the Type I IFN promoter, but not the CMV promoter (IRF3 and NF-kB transcription factor binding sites are not contained in the CMV promoter). […]"}, "[2]": {"tested_on": "STING signaling", "test": "IFNβ ELISA in MEF cells after ISD treatment", "assay_type": "cell-based, murine", "protocol": "Example 9: Interferon β Elisa analysis: Interferon β Elisa was performed using either the IFNβ human ELISA Kit from Invitrogen or the Human IFNβ ELISA Kit from PBL Interferon Source following the manufacturer's protocol."}}, "note": "“Also recorded” adds a separate entry of the source."}
{"smiles": "N#Cc1c(NC(=O)c2ccccc2Cl)n(Cc2ccccc2)c2nc3ccccc3nc12", "note": "[Compound Y1, N-{1-benzyl-3-cyano-1H-pyrrolo[2,3-ß]quinoxalin-2-yl}-2-chlorobenzamide]", "values": [{"measurement": "binding to STING (TSA)", "setting": "[1]", "value": "binds to and stabilizes STING; also recorded: can bind to STING"}, {"measurement": "IFNβ production (ELISA)", "setting": "[2]", "value": "reproducibly decreased the production of IFNβ; also recorded: dramatically decreased"}]}
